Test results as given in ChEMBL document CHEMBL1129675, “New directions in antibacterial research” (1996).
In brackets after ≈: the same amount, converted by molar mass. Values belong to the molecule of their own block, whether it stands above or below them.

Experiments:
Enterococcus faecium [1] = assay: Inhibitory activity against VanA strain of E. faecium; Range is 0.03-2 ug/mL; assay type: functional
Staphylococcus aureus [2] = assay: Inhibitory activity against MRSA; assay type: functional
Streptococcus pyogenes = assay: Inhibitory activity against Streptococcus pyogenes; assay type: functional
Streptococcus pneumoniae [3] = assay: Inhibitory activity against Streptococcus pneumoniae; assay type: functional
[4] = Inhibitory activity against VanB enterococci; Range is 0.016-1 ug/mL; assay type: functional
Enterococcus faecalis [5] = assay: Inhibitory activity against VanA strain of E. faecalis; Range is 0.03-2 ug/mL
Enterococcus faecalis [6] = assay: Inhibitory activity against VanA strain of E. faecalis; Range is 2-64 ug/mL; assay type: functional
Enterococcus faecium [7] = assay: Inhibitory activity against VanA strain of E. faecium; Range is 2-64 ug/mL; assay type: functional
Bacteria = assay: Inhibitory activity against vancomycin-sensitive Gram-positive bacteria; assay type: functional
Enterococcus = assay: Inhibitory activity against vancomycin-resistant enterococci; assay type: functional
Mus musculus [8] = species on record: Mus musculus; assay: Inhibitory activity against Staphylococcus aureus in mice; assay type: functional
Mus musculus [9] = species on record: Mus musculus; assay: Inhibitory activity against Streptococcus pneumoniae in mice; assay type: functional
Mus musculus [10] = species on record: Mus musculus; assay: Inhibitory activity against Streptococcus pyogenes in mice; assay type: functional
Enterococcus faecalis [11] = assay: Inhibitory activity against strain of E. faecalis; Range is 0.25-2 ug/mL; assay type: functional
Staphylococcus sp. [12] = assay: Inhibitory activity against ciprofloxacin resistant staphylococci; Range is 2-8 ug/mL; assay type: functional
Streptococcus pneumoniae [13] = assay: Inhibitory activity against S. pneumoniae; Range is 0.12-0.25 ug/mL; assay type: functional
Enterococcus faecalis [14] = assay: Inhibitory activity against strain of Enterococcus faecalis; assay type: functional
Enterococcus faecium [15] = assay: Inhibitory activity against strain of Enterococcus faecium; assay type: functional
Streptococcus sp. [16] = assay: Inhibitory activity against all group A and B Streptococci; assay type: functional
Staphylococcus sp. [17] = assay: Inhibitory activity against Staphylococci; assay type: functional
Citrobacter freundii = assay: In vitro inhibitory activity against Citrobacter freundii; assay type: functional
Enterococcus faecalis [18] = assay: In vitro inhibitory activity against Enterococcus faecalis; assay type: functional
Enterobacter = assay: In vitro inhibitory activity against Enterobacteriaceae; Range is 0.016-0.5 ug/mL; assay type: functional
Providencia sp. = assay: In vitro inhibitory activity against Providencia species; assay type: functional
Serratia marcescens = assay: In vitro inhibitory activity against Serratia marcescens; assay type: functional
Streptococcus sp. [19] = assay: In vitro inhibitory activity against Streptococci; Range is 0.06-0.25 ug/mL; assay type: functional
Staphylococcus aureus [20] = assay: In vitro inhibitory activity against ciprofloxacin resistant MRSA; assay type: functional
[21] = system: Staphylococcus epidermidis; assay: Inhibitory activity against Staphylococcus epidermidis; assay type: functional
Staphylococcus aureus [22] = assay: Inhibitory activity against Staphylococcus aureus; assay type: functional
Enterococcus faecalis [23] = assay: Inhibitory activity against strain of Enterococcus faecalis resistant to both vancomycin and teicoplanin
Enterococcus faecium [24] = assay: Inhibitory activity against strain of Enterococcus faecium resistant to both vancomycin and teicoplanin; assay type: functional
Enterococcus faecium [25] = assay: Inhibitory activity against VanA strain of E. faecium; Range is 64-2108 ug/mL; assay type: functional
Bacteroides fragilis = assay: Inhibitory activity against strain of Bacteroides fragilis; assay type: functional
Enterococcus faecium [26] = assay: Inhibitory activity against vancomycin-resistant Enterococcus faecium; assay type: functional
Pseudomonas aeruginosa = assay: Inhibitory activity against ciprofloxacin-resistant Pseudomonas aeruginosa; assay type: functional
Staphylococcus aureus [27] = assay: Inhibitory activity against ciprofloxacin-resistant Staphylococcus aureus; assay type: functional
Staphylococcus aureus [28] = assay: Inhibitory activity against strain of Staphylococcus aureus; assay type: functional
Streptococcus pneumoniae [29] = assay: Inhibitory activity against penicillin-resistant Streptococcus pneumoniae; assay type: functional

- MIC (Enterococcus faecium [1]): 0.03 µg/mL (≈ 0.0168 µM)
- MIC (Staphylococcus aureus [2]): ≤ 0.5 µg/mL
- MIC (Streptococcus pyogenes): < 0.06 µg/mL
- MIC (Streptococcus pneumoniae [3]): < 0.008 µg/mL
- MIC [4]: 0.016 µg/mL (≈ 0.00898 µM)
- MIC (Enterococcus faecalis [5]): 0.03 µg/mL (≈ 0.0168 µM)
SMILES: CCCCCOc1ccc(CN[C@@]2(C)C[C@@H](O[C@H]3[C@H](Oc4c5cc6cc4Oc4ccc(cc4Cl)[C@@H](C[C@H]4C[C@](C)(N)[C@@H](O)[C@H](C)O4)[C@]4(C)NC(=O)[C@H](NC(=O)[C@@H]6NC(=O)[C@H](CC(N)=O)NC(=O)[C@H](NC(=O)[C@@H](CC(C)C)NC)[C@H](O)c6ccc(c(Cl)c6)O5)c5ccc(O)c(c5)-c5c(O)cc(O)cc5[C@@H](C(=O)O)NC4=O)O[C@H](CO)[C@@H](O)[C@@H]3O)O[C@@H](C)[C@@H]2O)cc1

SMILES: CN[C@H](CC(C)C)C(=O)N[C@H]1C(=O)N[C@@H](CC(N)=O)C(=O)N[C@H]2C(=O)N[C@H]3C(=O)N[C@](C)(C(=O)N[C@H](C(=O)O)c4cc(O)cc(O)c4-c4cc3ccc4O)[C@H](C[C@H]3C[C@](C)(N)[C@@H](O)[C@H](C)O3)c3ccc(c(Cl)c3)Oc3cc2cc(c3O[C@@H]2O[C@H](CO)[C@@H](O)[C@H](O)[C@H]2O[C@@H]2C[C@](C)(N)[C@@H](O)[C@H](C)O2)Oc2ccc(cc2Cl)[C@H]1O [VANCOMYCIN DERIVATIVE (EPIVANCOMYCIN LINKED WITH ADDITIONAL AMINO SUGAR)]
- MIC (Enterococcus faecalis [6]): 2 µg/mL (≈ 1.25 µM)
- MIC (Enterococcus faecium [7]): 2 µg/mL (≈ 1.25 µM)
- MIC (Bacteria): 32 µg/mL (≈ 19.9 µM)
- MIC (Enterococcus): 500 µg/mL (≈ 312 µM)

SMILES: CNC(=O)C[C@@H]1NC(=O)c2csc(n2)-c2ccc(-c3nc(C4=N[C@H](C(=O)N5CCC[C@H]5C(N)=O)CO4)cs3)nc2-c2csc(n2)-c2csc(n2)[C@H]([C@@H](O)c2ccccc2)NC(=O)CNC(=O)c2nc(sc2COC)[C@H](C(C)C)NC(=O)c2nc1sc2C
- ED50 (Mus musculus [8]): 1.8 mg/kg
- ED50 (Mus musculus [9]): 15.2 mg/kg
- ED50 (Mus musculus [10]): 9.1 mg/kg

SMILES: N[C@@H]1[C@H]2CN(c3nc4c(cc3F)c(=O)c(C(=O)O)cn4-c3ccc(F)cc3F)C[C@@H]12 [TROVAFLOXACIN]
- MIC (Enterococcus faecalis [11]): 0.25 µg/mL (≈ 0.6 µM)
- MIC (Staphylococcus sp. [12]): 2 µg/mL (≈ 4.8 µM)
- MIC (Streptococcus pneumoniae [13]): 0.12 µg/mL (≈ 0.288 µM)

SMILES: N[C@@H]1CN(c2c(F)cc3c(=O)c(C(=O)O)cn(C4C[C@@H]4F)c3c2Cl)CC12CC2 (single isomer, unassigned) [SITAFLOXACIN ANHYDROUS]
- MIC90 (Enterococcus faecalis [14]): 1 µg/mL (≈ 2.44 µM)
- MIC90 (Enterococcus faecium [15]): 0.5 µg/mL (≈ 1.22 µM)
- MIC90 (Streptococcus sp. [16]): ≤ 0.125 µg/mL
- MIC90 (Staphylococcus aureus [2]): 1 µg/mL (≈ 2.44 µM)
- MIC90 (Staphylococcus sp. [17]): ≤ 0.06 µg/mL

SMILES: NC1CCN(c2c(F)cc3c(=O)c(C(=O)O)cn(C4CC4)c3c2Cl)C1 (centres undefined) [CLINAFLOXACIN]
- MIC90 (Citrobacter freundii): 0.5 µg/mL (≈ 1.37 µM)
- MIC90 (Enterococcus faecalis [18]): 0.5 µg/mL (≈ 1.37 µM)
- MIC90 (Enterobacter): 0.016 µg/mL (≈ 0.0437 µM)
- MIC90 (Providencia sp.): 0.5 µg/mL (≈ 1.37 µM)
- MIC90 (Serratia marcescens): 0.5 µg/mL (≈ 1.37 µM)
- MIC90 (Streptococcus sp. [19]): 0.06 µg/mL (≈ 0.164 µM)
- MIC90 (Staphylococcus aureus [20]): 1 µg/mL (≈ 2.73 µM)

- MIC90 [21]: 0.5 µg/mL (≈ 0.724 µM)
- MIC90 (Staphylococcus aureus [22]): 1 µg/mL (≈ 1.45 µM)
SMILES: CCN(CC)CCS(=O)(=O)[C@@H]1CCN2C(=O)c3coc(n3)CC(=O)C[C@H](O)/C=C(C)/C=C/CNC(=O)/C=C/[C@@H](C)[C@@H](C(C)C)OC(=O)[C@@H]12 [DALFOPRISTIN]

SMILES: CN[C@H](CC(C)C)C(=O)N[C@H]1C(=O)N[C@@H](CC(N)=O)C(=O)N[C@H]2C(=O)N[C@H]3C(=O)N[C@H](C(=O)N[C@H](C(=O)O)c4cc(O)cc(O)c4-c4cc3ccc4O)[C@H](O)c3ccc(c(Cl)c3)Oc3cc2cc(c3O[C@@H]2O[C@H](CO)[C@@H](O)[C@H](O)[C@H]2O[C@H]2C[C@](C)(N)[C@H](O)[C@H](C)O2)Oc2ccc(cc2Cl)[C@H]1O [VANCOMYCIN]
- MIC (Enterococcus faecalis [23]): ≥ 128 µg/mL
- MIC (Enterococcus faecium [24]): ≥ 128 µg/mL
- MIC (Enterococcus faecium [25]): 64 µg/mL (≈ 44.2 µM)

SMILES: Cc1c(N2CC[C@H](N)C2)c(F)cn2c(=O)c(C(=O)O)cc(C3CC3)c12 [ABT-719]
- MIC90 (Bacteroides fragilis): 0.06 µg/mL (≈ 0.174 µM)
- MIC90 (Enterococcus faecium [26]): 0.5 µg/mL (≈ 1.45 µM)
- MIC90 (Pseudomonas aeruginosa): 2 µg/mL (≈ 5.79 µM)
- MIC90 (Staphylococcus aureus [27]): 0.25 µg/mL (≈ 0.724 µM)
- MIC90 (Staphylococcus aureus [28]): 0.015 µg/mL (≈ 0.0434 µM)
- MIC90 (Streptococcus pneumoniae [29]): 0.03 µg/mL (≈ 0.0869 µM)
